Columns and labels:
Type in all cases: cell-based
[1] = biological target: BaF3 cell lines stably transfected with kinase EGFR Del/T790M/C797S (Homo sapiens, UniProt P00533, T790M/C797S, cells depend on it, form not given); experiment: Growth inhibition of BaF3 cell line stably transfected with kinase EGFR Del/T790M/C797S (MTS); conditions: 48 h, read-out: growth inhibitory activity IC50, Del/T790M/C797S
Method in brief: (§1)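 Transfected BaF3 cells exposed 48 h at 37 °C to 8-point, 1/3-step dilutions from 10 μM top in 0.1% DMSO, duplicates. MTS/PES added for 1-4 h, OD 490 nm read; inhibition normalised to DMSO and cell-free blank, IC50 fitted from inhibition rates.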

[2] = biological target: BaF3 cell lines stably transfected with kinase EGFR L858R/T790M (Homo sapiens, UniProt P00533, T790M/L858R, cells depend on it); experiment: Growth inhibition of BaF3 cell line stably transfected with kinase EGFR L858R/T790M (MTS); conditions: 48 h, read-out: growth inhibitory activity IC50, L858R/T790M
Method in brief: as §1

[3] = biological target: BaF3 cell lines stably transfected with kinase EGFR Del (Homo sapiens, UniProt P00533, cells depend on it, form not given); experiment: Growth inhibition of BaF3 cell line stably transfected with kinase EGFR Del (MTS); conditions: 48 h, read-out: growth inhibitory activity IC50, Del
Method in brief: as §1

[4] = biological target: BaF3 cell lines stably transfected with kinase EGFR L858R (Homo sapiens, UniProt P00533, L858R, cells depend on it); experiment: Growth inhibition of BaF3 cell line stably transfected with kinase EGFR L858R (MTS); conditions: 48 h, read-out: growth inhibitory activity IC50, L858R
Method in brief: as §1

[5] = biological target: BaF3 cell lines stably transfected with kinase EGFR Del/T790M (Homo sapiens, UniProt P00533, T790M, cells depend on it, form not given); experiment: Growth inhibition of BaF3 cell line stably transfected with kinase EGFR Del/T790M (MTS); conditions: 48 h, read-out: growth inhibitory activity IC50, Del/T790M
Method in brief: as §1

[6] = biological target: BaF3 cell lines stably transfected with kinase EGFR L858R/T790M/C797S (Homo sapiens, UniProt P00533, T790M/C797S/L858R, cells depend on it); experiment: Growth inhibition of BaF3 cell line stably transfected with kinase EGFR L858R/T790M/C797S (MTS); conditions: 48 h, read-out: growth inhibitory activity IC50, L858R/T790M/C797S
Method in brief: as §1

Chain of BaF3 cell lines stably transfected with kinase EGFR L858R/T790M/C797S (P00533 whole entry T790M/C797S/L858R): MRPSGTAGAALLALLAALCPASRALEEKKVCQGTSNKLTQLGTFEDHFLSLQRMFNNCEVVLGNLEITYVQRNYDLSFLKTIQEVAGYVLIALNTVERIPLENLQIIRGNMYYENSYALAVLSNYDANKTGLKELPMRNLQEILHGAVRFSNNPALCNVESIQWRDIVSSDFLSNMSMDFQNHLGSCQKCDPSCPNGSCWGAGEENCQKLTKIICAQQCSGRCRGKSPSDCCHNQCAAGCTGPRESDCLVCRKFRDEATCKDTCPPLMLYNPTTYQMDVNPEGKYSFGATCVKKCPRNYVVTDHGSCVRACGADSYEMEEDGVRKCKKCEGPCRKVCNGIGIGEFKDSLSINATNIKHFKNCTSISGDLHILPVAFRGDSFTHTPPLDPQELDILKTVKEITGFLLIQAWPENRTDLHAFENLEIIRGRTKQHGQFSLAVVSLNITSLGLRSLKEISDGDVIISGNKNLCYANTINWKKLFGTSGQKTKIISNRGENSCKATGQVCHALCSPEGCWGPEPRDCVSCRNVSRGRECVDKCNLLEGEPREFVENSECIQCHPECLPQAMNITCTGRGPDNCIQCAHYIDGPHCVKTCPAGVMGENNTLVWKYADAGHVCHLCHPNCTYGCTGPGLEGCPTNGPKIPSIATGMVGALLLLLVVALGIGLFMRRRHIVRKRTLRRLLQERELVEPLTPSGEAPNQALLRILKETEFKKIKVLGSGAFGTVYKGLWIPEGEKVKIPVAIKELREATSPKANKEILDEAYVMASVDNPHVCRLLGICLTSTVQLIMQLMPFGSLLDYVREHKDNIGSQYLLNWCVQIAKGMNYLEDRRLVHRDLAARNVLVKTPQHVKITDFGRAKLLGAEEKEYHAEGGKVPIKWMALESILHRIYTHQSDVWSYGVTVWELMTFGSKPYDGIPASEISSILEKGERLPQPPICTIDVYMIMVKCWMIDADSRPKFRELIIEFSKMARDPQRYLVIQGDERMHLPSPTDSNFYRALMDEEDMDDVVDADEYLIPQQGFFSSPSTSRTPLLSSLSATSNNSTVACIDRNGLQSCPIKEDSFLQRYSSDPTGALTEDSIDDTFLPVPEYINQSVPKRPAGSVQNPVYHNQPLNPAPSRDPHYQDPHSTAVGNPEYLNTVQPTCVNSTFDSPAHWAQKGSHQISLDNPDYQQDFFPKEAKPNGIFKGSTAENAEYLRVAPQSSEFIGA
Chain of BaF3 cell lines stably transfected with kinase EGFR Del/T790M (P00533 with tags, fused parts or gaps DEL746-750/T790M, form open): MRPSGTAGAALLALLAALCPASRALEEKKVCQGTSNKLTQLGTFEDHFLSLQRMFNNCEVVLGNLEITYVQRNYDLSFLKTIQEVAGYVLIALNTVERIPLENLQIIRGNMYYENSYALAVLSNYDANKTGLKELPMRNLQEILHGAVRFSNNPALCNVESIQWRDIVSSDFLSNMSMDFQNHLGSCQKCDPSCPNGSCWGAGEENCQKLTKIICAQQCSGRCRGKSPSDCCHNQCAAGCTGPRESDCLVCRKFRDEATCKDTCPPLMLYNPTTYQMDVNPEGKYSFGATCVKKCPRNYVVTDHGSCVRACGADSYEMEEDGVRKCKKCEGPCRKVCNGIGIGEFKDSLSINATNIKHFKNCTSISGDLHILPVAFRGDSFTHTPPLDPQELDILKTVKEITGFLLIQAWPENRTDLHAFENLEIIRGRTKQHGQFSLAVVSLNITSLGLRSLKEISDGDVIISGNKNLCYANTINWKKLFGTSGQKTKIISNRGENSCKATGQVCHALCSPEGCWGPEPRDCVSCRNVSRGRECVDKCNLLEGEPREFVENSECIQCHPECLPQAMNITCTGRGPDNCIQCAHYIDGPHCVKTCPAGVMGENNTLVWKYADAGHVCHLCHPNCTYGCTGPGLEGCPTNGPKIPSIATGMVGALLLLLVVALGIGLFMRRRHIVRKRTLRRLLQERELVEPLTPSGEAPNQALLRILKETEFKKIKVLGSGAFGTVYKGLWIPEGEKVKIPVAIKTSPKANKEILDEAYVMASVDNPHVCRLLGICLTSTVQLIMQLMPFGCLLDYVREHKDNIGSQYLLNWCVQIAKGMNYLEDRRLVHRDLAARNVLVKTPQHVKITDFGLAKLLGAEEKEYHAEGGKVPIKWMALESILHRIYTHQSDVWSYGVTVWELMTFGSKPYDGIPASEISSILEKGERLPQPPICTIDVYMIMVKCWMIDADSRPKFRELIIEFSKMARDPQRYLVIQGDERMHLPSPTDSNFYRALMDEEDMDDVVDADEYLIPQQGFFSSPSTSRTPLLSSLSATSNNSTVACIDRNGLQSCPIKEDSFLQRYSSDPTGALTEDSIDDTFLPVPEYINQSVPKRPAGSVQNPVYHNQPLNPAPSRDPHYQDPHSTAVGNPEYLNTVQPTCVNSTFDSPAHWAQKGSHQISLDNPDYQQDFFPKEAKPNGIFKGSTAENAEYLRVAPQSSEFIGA
Chain of BaF3 cell lines stably transfected with kinase EGFR Del (P00533 with tags, fused parts or gaps DEL746-750): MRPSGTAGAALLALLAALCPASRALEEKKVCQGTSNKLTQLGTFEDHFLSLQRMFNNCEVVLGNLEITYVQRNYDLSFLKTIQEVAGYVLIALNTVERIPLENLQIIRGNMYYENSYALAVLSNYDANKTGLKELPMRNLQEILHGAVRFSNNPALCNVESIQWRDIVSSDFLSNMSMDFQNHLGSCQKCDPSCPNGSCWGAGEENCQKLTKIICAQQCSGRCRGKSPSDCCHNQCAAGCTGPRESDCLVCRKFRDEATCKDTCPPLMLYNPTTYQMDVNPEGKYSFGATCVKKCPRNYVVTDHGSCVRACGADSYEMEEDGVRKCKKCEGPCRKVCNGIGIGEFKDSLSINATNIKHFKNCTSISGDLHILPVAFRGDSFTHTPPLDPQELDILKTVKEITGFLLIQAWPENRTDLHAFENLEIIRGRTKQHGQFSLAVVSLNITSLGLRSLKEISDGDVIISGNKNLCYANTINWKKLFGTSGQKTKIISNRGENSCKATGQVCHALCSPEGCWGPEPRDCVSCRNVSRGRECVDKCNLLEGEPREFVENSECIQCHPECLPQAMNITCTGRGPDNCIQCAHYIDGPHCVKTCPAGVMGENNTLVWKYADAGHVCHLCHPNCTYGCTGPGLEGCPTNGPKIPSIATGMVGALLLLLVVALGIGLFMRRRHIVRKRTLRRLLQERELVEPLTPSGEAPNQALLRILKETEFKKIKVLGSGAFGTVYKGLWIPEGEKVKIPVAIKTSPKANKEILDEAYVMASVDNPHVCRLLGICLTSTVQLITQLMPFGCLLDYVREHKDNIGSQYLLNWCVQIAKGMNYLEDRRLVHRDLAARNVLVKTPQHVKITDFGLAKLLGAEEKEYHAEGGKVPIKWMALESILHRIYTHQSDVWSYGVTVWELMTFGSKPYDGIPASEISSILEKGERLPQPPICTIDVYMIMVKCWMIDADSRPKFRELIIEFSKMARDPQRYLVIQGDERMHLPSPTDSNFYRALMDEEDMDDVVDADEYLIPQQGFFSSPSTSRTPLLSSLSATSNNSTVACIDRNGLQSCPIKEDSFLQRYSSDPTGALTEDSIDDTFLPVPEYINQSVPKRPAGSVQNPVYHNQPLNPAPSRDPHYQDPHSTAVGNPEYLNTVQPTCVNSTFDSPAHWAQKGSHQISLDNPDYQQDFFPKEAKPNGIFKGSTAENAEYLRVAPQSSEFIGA
Chain of BaF3 cell lines stably transfected with kinase EGFR L858R/T790M (P00533 whole entry T790M/L858R): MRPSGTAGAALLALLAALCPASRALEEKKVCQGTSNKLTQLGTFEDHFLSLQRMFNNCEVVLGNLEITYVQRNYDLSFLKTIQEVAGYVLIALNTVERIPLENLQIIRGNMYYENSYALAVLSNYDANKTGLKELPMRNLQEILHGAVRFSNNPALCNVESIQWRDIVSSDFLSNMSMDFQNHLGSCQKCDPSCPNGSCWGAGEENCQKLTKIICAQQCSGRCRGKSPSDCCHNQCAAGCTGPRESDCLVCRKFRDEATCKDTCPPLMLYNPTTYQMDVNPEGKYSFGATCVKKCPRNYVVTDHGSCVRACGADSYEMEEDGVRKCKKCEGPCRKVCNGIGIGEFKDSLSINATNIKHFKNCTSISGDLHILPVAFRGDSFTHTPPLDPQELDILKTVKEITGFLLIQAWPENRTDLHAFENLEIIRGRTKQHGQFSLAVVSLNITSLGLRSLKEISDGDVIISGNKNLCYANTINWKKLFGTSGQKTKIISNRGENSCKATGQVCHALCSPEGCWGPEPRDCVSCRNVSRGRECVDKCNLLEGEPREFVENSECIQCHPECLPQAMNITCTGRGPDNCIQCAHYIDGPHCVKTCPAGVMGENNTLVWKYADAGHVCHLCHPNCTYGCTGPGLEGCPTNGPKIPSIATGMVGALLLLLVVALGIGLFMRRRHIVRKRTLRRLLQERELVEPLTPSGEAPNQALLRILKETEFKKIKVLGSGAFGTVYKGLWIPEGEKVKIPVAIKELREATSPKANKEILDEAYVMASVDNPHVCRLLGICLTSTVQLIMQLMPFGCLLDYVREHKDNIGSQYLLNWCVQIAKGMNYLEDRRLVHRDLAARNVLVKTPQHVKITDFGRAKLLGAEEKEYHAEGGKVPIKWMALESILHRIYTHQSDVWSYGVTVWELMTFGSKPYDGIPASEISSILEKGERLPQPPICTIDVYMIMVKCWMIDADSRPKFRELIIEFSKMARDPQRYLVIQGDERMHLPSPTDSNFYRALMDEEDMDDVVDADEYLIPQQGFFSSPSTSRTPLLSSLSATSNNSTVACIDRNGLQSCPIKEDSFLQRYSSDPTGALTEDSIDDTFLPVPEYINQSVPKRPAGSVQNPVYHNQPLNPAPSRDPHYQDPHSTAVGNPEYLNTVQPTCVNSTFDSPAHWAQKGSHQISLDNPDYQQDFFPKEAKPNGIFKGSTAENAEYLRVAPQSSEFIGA

| SMILES | GI50 [1] [nM] | GI50 [2] [nM] | GI50 [3] [nM] | GI50 [4] [nM] | GI50 [5] [nM] | GI50 [6] [nM] |
| --- | --- | --- | --- | --- | --- | --- |
| C=Cc1cnc(Nc2cc(C)c(N3CCC(N4CCN(C)CC4)CC3)cc2OC)nc1Nc1ccc2nccnc2c1NS(=O)(=O)C(C)C [II-43] | 50 to 500 | 500 to 2500 | 50 to 500 | 50 to 500 | 50 to 500 | 50 to 500 |
| C=Cc1cnc(Nc2cc(C)c(N3CCC(N4CCN(C)CC4)CC3)cc2OC)nc1Nc1ccc2nccnc2c1N(C)S(C)(=O)=O [II-15] | ≤ 50 | ≤ 50 | ≤ 50 | ≤ 50 | ≤ 50 | ≤ 50 |
| C=Cc1cnc(Nc2cc(CC)n(C)n2)nc1Nc1ccc2nccnc2c1N(C)S(C)(=O)=O [II-63] | 50 to 500 | 50 to 500 | 50 to 500 | 500 to 2500 | 50 to 500 | 50 to 500 |
| C=Cc1cnc(Nc2cc(C(C)C)c(N3CCC(N4CCN(C)CC4)CC3)cc2OC)nc1Nc1ccc2nccnc2c1N(C)S(C)(=O)=O [II-17] | 50 to 500 | 50 to 500 | 50 to 500 | 500 to 2500 | 50 to 500 | 50 to 500 |
| C=C(C)c1cnc(Nc2cc(C(C)C)c(N3CCC(N4CCN(C)CC4)CC3)cc2OC)nc1Nc1ccc2nccnc2c1N(C)S(C)(=O)=O [II-22] | 50 to 500 | 50 to 500 | 50 to 500 | 50 to 500 | 50 to 500 | 500 to 2500 |
| CCc1cc(Nc2ncc(C=C(C)C)c(Nc3ccc4nccnc4c3P(C)(C)=O)n2)c(OC)cc1N1CCC(N2CCN(C)CC2)CC1 [Compound I-10] | 50 to 500 | 50 to 500 | ≤ 50 | ≤ 50 | 500 to 2500 | 50 to 500 |
| C=Cc1cnc(Nc2cc(CC)c(NCCN(C)C)cc2OC)nc1Nc1ccc2nccnc2c1N(C)S(C)(=O)=O [II-50] | 50 to 500 | 50 to 500 | 500 to 2500 | 500 to 2500 | 50 to 500 | 50 to 500 |
| C=Cc1cnc(Nc2cc(CC)c(N3CCC(N4CCN(C)CC4)CC3)nc2OC)nc1Nc1ccc2nccnc2c1NS(C)(=O)=O [II-33] | 50 to 500 | 50 to 500 | ≤ 50 | ≤ 50 | 50 to 500 | 50 to 500 |
| C=Cc1cnc(Nc2cc[nH]n2)nc1Nc1ccc2nccnc2c1N(C)S(C)(=O)=O [II-59] | 500 to 2500 | 500 to 2500 | 50 to 500 | 500 to 2500 | 500 to 2500 | 500 to 2500 |
| C=Cc1cnc(Nc2cc(CC)c(NCCO)cc2OC)nc1Nc1ccc2nccnc2c1N(C)S(C)(=O)=O [II-49] | 50 to 500 | 50 to 500 | 500 to 2500 | 500 to 2500 | 500 to 2500 | 50 to 500 |
| C=Cc1cnc(Nc2cc(CC)c(N3CCC(N4CCN(C)CC4)CC3)cc2OC)nc1Nc1ccc2nccnc2c1N(C)S(=O)(=O)C1CC1 [II-11] | 50 to 500 | 50 to 500 | ≤ 50 | 50 to 500 | ≤ 50 | 50 to 500 |
| CCc1cc(Nc2ncc(/C=C/c3ccccc3)c(Nc3ccc4nccnc4c3N(C)S(C)(=O)=O)n2)c(OC)cc1N1CCC(N2CCN(C)CC2)CC1 [II-29] | 500 to 2500 | 500 to 2500 | 50 to 500 | 50 to 500 | 500 to 2500 | 500 to 2500 |
| C=Cc1cnc(Nc2cc3c(cc2C)CCN(C)C3)nc1Nc1ccc2nccnc2c1N(C)S(C)(=O)=O [II-72] | 50 to 500 | 50 to 500 | 50 to 500 | 50 to 500 | 500 to 2500 | ≤ 50 |
| C=C(C)c1cnc(Nc2cc(CC)c(N3CCC(N4CCN(C)CC4)CC3)cc2OC)nc1Nc1ccc2nccnc2c1P(C)(C)=O [Compound I-15] | ≤ 50 | ≤ 50 | ≤ 50 | ≤ 50 | ≤ 50 | ≤ 50 |
| C=Cc1cnc(Nc2ccc(N3CCC(N4CCN(C)CC4)CC3)c(CC)c2)nc1Nc1ccc2nccnc2c1P(C)(C)=O [Compound I-18] | ≤ 50 | 50 to 500 | 50 to 500 | ≤ 50 | 50 to 500 | ≤ 50 |
| C=Cc1cnc(Nc2cc(CC)c(N3CCC(N4CCN(C)CC4)CC3)cc2OC)nc1Nc1ccc2nccnc2c1N(C)S(=O)(=O)C(F)(F)F [II-8] | 50 to 500 | 50 to 500 | 50 to 500 | 50 to 500 | 50 to 500 | 50 to 500 |
| CCc1cc(Nc2ncc(C=C(C)C)c(Nc3ccc4nccnc4c3N(C)S(C)(=O)=O)n2)c(OC)cc1N1CCC(N2CCN(C)CC2)CC1 [II-26] | 500 to 2500 | 500 to 2500 | ≤ 50 | 50 to 500 | 500 to 2500 | 500 to 2500 |
| C=Cc1cnc(Nc2ccn(C(C)C)n2)nc1Nc1ccc2nccnc2c1N(C)S(C)(=O)=O [II-61] | 50 to 500 | 500 to 2500 | 500 to 2500 | ≤ 50 | 500 to 2500 | 50 to 500 |

Now from value to molecule:

| GI50 [1] [nM] | GI50 [2] [nM] | GI50 [3] [nM] | GI50 [4] [nM] | GI50 [5] [nM] | GI50 [6] [nM] | SMILES |
| --- | --- | --- | --- | --- | --- | --- |
| 50 to 500 | 50 to 500 | 50 to 500 | 50 to 500 | 50 to 500 | 50 to 500 | C=Cc1cnc(Nc2cc(CC)c(N3CCC(N(C)C)CC3)cc2OC)nc1Nc1ccc2nccnc2c1S(=O)(=O)NC [IV-13] |
| 50 to 500 | 50 to 500 | 50 to 500 | 50 to 500 | 50 to 500 | 50 to 500 | C=Cc1cnc(Nc2cc(C)c(N3CCC(N4CCN(C)CC4)CC3)cc2OC)nc1Nc1ccc2nccnc2c1S(=O)(=O)NC [IV-2] |
| 50 to 500 | 50 to 500 | 50 to 500 | 50 to 500 | 50 to 500 | 50 to 500 | C=Cc1cnc(Nc2cc(CC)c(N3CCN(C)CC3)cc2OC)nc1Nc1ccc2nccnc2c1S(=O)(=O)NC [IV-15] |
| 50 to 500 | 50 to 500 | 50 to 500 | 50 to 500 | 50 to 500 | 50 to 500 | C=Cc1cnc(Nc2cc(CC)c(N3CCC(N(C)C)C3)cc2OC)nc1Nc1ccc2nccnc2c1S(=O)(=O)NC (stereo not drawn) [IV-14] |
| 500 to 2500 | 50 to 500 | 500 to 2500 | 500 to 2500 | 500 to 2500 | 500 to 2500 | C=Cc1cnc(Nc2cc(C(C)C)c(N3CCC(N4CCN(C)CC4)CC3)cc2OC)nc1Nc1ccc2nccnc2c1S(C)(=O)=O [III-11] |
| 500 to 2500 | 50 to 500 | 500 to 2500 | 50 to 500 | 50 to 500 | 500 to 2500 | C=Cc1cnc(Nc2cc(C)c(N3CCC(N4CCN(C)CC4)CC3)cc2OC)nc1Nc1ccc2nccnc2c1S(=O)(=O)NC(C)C [IV-17] |
| 50 to 500 | ≤ 50 | 50 to 500 | 50 to 500 | 50 to 500 | 50 to 500 | C=Cc1cnc(Nc2cc(F)c(N3CCC(N4CCN(C)CC4)CC3)c(F)c2)nc1Nc1ccc2nccnc2c1S(=O)(=O)NC [IV-11] |
| 500 to 2500 | 50 to 500 | 500 to 2500 | 500 to 2500 | 500 to 2500 | 500 to 2500 | C=Cc1cnc(Nc2ccc(N3CCC(N4CCN(C)CC4)CC3)cc2OC)nc1Nc1ccc2nccnc2c1S(=O)(=O)NC [IV-1] |
| 500 to 2500 | 50 to 500 | 500 to 2500 | 500 to 2500 | 50 to 500 | 500 to 2500 | C=Cc1cnc(Nc2cc(CC)c(N3CCC(N4CCN(C)CC4)CC3)cc2OC(F)(F)F)nc1Nc1ccc2nccnc2c1S(=O)(=O)NC [IV-5] |

Reference: US12679822B2, “Alkenyl pyrimidine compound, preparation method therefor, and application thereof” (Hongyun Biotech Co., Ltd., priority 2020, dated 2026)
